Among the data in US8680159B2, “Bradykinin 1 receptor modulating compounds” (Gruenenthal GmbH, priority 2010, dated 2014) are inhibition values, retold here.

For orientation: inhibition means the relative decrease from the control value, in per cent.

The first test has as its target T1, B1R receptor of the rat (CHO K1 cells stably transfected with the B1R gene of the rat) (Rattus norvegicus, UniProt P97583).
T1 construct: expressed in transfected cells; host or cells: CHO K1 cells (Chinese hamster ovary), stably transfected
T1 sequence (P97583 1-337): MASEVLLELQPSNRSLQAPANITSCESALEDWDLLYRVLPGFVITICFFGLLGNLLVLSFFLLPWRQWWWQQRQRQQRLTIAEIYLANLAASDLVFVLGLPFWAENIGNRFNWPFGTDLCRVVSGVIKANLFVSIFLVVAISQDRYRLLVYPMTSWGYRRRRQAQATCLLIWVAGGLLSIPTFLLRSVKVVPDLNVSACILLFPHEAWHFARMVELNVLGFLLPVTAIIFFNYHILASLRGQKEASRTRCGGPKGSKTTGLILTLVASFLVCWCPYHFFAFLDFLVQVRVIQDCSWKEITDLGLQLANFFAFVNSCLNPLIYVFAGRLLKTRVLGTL
The test can be described thus: Functional study on the bradykinin receptor 1 (B1R), Ca2+ fluorescence (Fluo-4) FLIPR/Novostar assay, rB1R cells. The test is classed as cell-based. The conditions noted are these: CHO-K1, 10 μM, library compounds CC_H, read-out: % Inhibition (r-B1R) at 10 μM. In outline: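 Stably transfected CHO K1 cells carrying human or rat B1R were Fluo-4 loaded and Ca2+ fluorescence read by FLIPR or Novostar. Compounds were added first at 10 μM for % activation, then the EC80 agonist was applied after 6-20 min (human: Lys-Des-Arg9-bradykinin; rat: Des-Arg9-bradykinin). % inhibition is relative to maximum achievable inhibition, and IC50 comes from concentration series.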
`CN(C(=O)c1ccc2c(c1)C(NC(=O)c1ccccc1Cl)CC2)C1CCN(c2ccnnc2)CC1` (stereo not shown) [CC_H-633, 3-[(2-Chloro-benzoyl)amino]-N-methyl-N-(1-pyridazin-4-yl-piperidin-4-yl)-2,3-dihydro-1H-indene-5-carboxylic acid amide]: the inhibition at 10 µM was found to be 103%.

Take `CN(C(=O)c1ccc2c(c1)C(NC(=O)CCC1CCCC1)CC2)C1CCN(c2ccnnc2)CC1` (stereo not shown) [CC_H-634, 3-(3-Cyclopentyl-propanoylamino)-N-methyl-N-(1-pyridazin-4-yl-piperidin-4-yl)-2,3-dihydro-1H-indene-5-carboxylic acid amide]: the inhibition at 10 µM came to 93%.

The target of a further test is T2, human B1R receptor (CHO K1 cells stably transfected with the human B1R gene) (Homo sapiens, UniProt P46663).
T2 construct: expressed in transfected cells; host or cells: CHO K1 cells (Chinese hamster ovary), stably transfected
T2 sequence (P46663 1-353): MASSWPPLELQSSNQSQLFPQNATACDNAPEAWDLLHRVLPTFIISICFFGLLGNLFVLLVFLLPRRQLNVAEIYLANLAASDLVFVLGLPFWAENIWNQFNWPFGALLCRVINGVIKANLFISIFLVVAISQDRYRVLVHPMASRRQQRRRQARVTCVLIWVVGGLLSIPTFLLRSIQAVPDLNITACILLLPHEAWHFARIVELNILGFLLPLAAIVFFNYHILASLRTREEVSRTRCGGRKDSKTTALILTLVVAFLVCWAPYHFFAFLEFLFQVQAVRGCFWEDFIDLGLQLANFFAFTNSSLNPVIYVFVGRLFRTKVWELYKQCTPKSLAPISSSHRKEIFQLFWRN
Description: Functional study on the bradykinin receptor 1 (B1R), Ca2+ fluorescence (Fluo-4) FLIPR/Novostar assay, hB1R cells. It is filed as cell-based. The following applies: CHO-K1, read-out: % Inhibition (h-B1R) at 10 μM. As for the experimental part:
The agonistic or antagonistic action of substances can be quantified on the bradykinin receptor 1 (B1R) of the species human and rat using ectopically expressing cell lines (CHO K1 cells) and with the aid of a Ca^2+-sensitive dye (Fluo-4) using a fluorescent imaging plate reader (FLIPR). The indication in % activation is based on the Ca^2+ signal after addition of Lys-Des-Arg^9-bradykinin (0.5 nM) or Des-Arg^9-bradykinin (100 nM). Antagonists lead to suppression of the Ca^2+ influx after the addition of the agonist. % Inhibition compared with the maximum achievable inhibition is indicated.
The agonistic or antagonistic action of substances can be determined on the bradykinin receptor 1 (B1R) of the species human and rat using the following assay. According to this assay, the increase in intracellular Ca^2+ following administration of a B1R agonist is quantified with the aid of a Ca^2+-sensitive dye (Fluo-4 type, Molecular Probes Europe BV, Leiden, Netherlands) using a Fluorescent Imaging Plate Reader (FLIPR, Molecular Devices, Sunnyvale, USA) and/or using a Novostar (BMG Labtech GmbH, Offenburg, Germany).
Chinese hamster ovary cells (CHO K1 cells) which have been stably transfected with the human B1R gene (hB1R cells) or with the B1R gene of the rat (rB1R cells) are used. For functional studies, the cells are plated out on black 96-well plates having a clear base (BD Biosciences, Heidelberg, Germany or Greiner, Frickenhausen, Germany) in a density of 20,000-35,000 cells/well. The cells are left overnight at 37° C. and with 5% CO2 in culture medium (hB1R cells: Nutrient Mixture Ham's F12, Gibco Invitrogen GmbH, Karlsruhe, Germany or DMEM, Sigma-Aldrich, Taufkirchen, Germany; rB1R cells: D-MEM/F12, Gibco Invitrogen GmbH, Karlsruhe, Germany), with 10 vol. % FBS (fetal bovine serum, Gibco Invitrogen GmbH, Karlsruhe, Germany or PAN Biotech GmbH, Aidenbach, Germany). On the following day, the cells are loaded for 60 minutes at 37° C. with 2.13 μM Fluo-4 (Molecular Probes Europe BV, Leiden, Netherlands) in HBSS buffer (Hank's buffered saline solution, Gibco Invitrogen GmbH, Karlsruhe, Germany) […] (Sigma-Aldrich, Taufkirchen, Germany) and 10 mM HEPES (Sigma-Aldrich, Taufkirchen, Germany). The plates are then washed twice with HBSS buffer, and HBSS buffer additionally containing 0.1% BSA (bovine serum albumin; Sigma-Aldrich, Taufkirchen, Germany), 5.6 mM glucose and 0.05% gelatin (Merck KGaA, Darmstadt, Germany) is added to the plates. After incubation for a further 20 minutes at room temperature, the plates are inserted into the FLIPR or Novostar for Ca^2+ measurement. Alternatively, washing is carried out with buffer A (15 mM HEPES, 80 mM NaCl, 5 mM KCl, 1.2 mM CaCl2, 0.7 mM MgSO4, 2 g/l glucose, 2.5 mM probenecid) followed by loading with buffer A with added 2.5 μM Fluo-4 and 0.025% Pluronic F127 (Sigma-Aldrich, Taufkirchen, Germany). The cells are then washed twice with buffer A and incubated for 30 minutes at room temperature with buffer A additionally containing 0.05% BSA and 0.05% gelatin and are then inserted into the FLIPR or Novostar for Ca^2+ measurement. The Ca^2+-dependent fluorescence is measured before and after the addition of substances (λex=488 nm, λem=540 nm). Quantification is carried out by measuring the highest fluorescence intensity (FC, fluorescence counts) over time.
The FLIPR protocol consists of 2 substance additions, which are pipetted in the FLIPR. In the case of measurements using the Novostar, only the second substance addition is pipetted in the device. Both devices measure the fluorescence intensity over time. Test substances (10 μM) are first pipetted onto the cells and the intracellular Ca^2+ increase is compared with the control (hB1R: Lys-Des-Arg^9-bradykinin>=50 nM; rB1R: Des-Arg^9-bradykinin>=1 μM). This gives the % activation, based on the Ca^2+ signal after addition of Lys-Des-Arg^9-bradykinin (>=50 nM) or Des-Arg^9-bradykinin (>=1 μM). […]
Regarding `Cc1cccc(C)c1C(=O)NC1CCOc2ccc(C(=O)N(C)C3CCN(c4ccncc4)CC3)cc21` (stereo not shown) [CC_H-71, 4-[(2,6-Dimethyl-benzoyl)amino]-N-methyl-N-(1-pyridin-4-yl-piperidin-4-yl)-3,4-dihydro-2H-chromene-6-carboxylic acid amide], the inhibition at 10 µM was 84%.

On to `CN(C(=O)c1ccc2c(c1)C(NC(=O)c1c(Cl)cccc1C(F)(F)F)CCO2)C1CCN(c2ccncc2)CC1` (stereo not shown) [CC_H-72, 4-[[2-Chloro-6-(trifluoromethyl)-benzoyl]amino]-N-methyl-N-(1-pyridin-4-yl-piperidin-4-yl)-3,4-dihydro-2H-chromene-6-carboxylic acid amide], for which the inhibition at 10 µM was 93%.

For the compound `CN(C(=O)c1ccc2c(c1)C(NC(=O)c1ccccc1Cl)CCC2)C1CCN(c2ccncc2)CC1` (stereo not shown) [CC_H-73, 8-[(2-Chloro-benzoyl)amino]-N-methyl-N-(1-pyridin-4-yl-piperidin-4-yl)-5,6,7,8-tetrahydro-naphthalene-2-carboxylic acid amide], the inhibition at 10 µM was found to be 100%.

In the case of `O=C(NCCC1CCN(c2ccncc2)CC1)c1ccc2c(c1)C(NC(=O)c1cccc(Cl)c1Cl)CC2` (stereo not shown) [CC_H-74, 3-[(2,3-Dichloro-benzoyl)amino]-N-[2-(1-pyridin-4-yl-piperidin-4-yl)-ethyl]-2,3-dihydro-1H-indene-5-carboxylic acid amide], the inhibition at 10 µM was 96%.

Regarding `CN(C(=O)c1ccc2c(c1)C(NC(=O)c1ccccc1Cl)CC2)C1CCN(c2ccc3cnccc3c2)CC1` (stereo not shown) [CC_H-75, 3-[(2-Chloro-benzoyl)amino]-N-(1-isoquinolin-6-yl-piperidin-4-yl)-N-methyl-2,3-dihydro-1H-indene-5-carboxylic acid amide], the inhibition at 10 µM is 99%.

Turning to `CN(C(=O)c1ccc2c(c1)C(NC(=O)c1cc(F)ccc1Cl)CC2)C1CCN(c2ccc3cnccc3c2)CC1` (stereo not shown) [CC_H-76, 3-[(2-Chloro-5-fluoro-benzoyl)amino]-N-(1-isoquinolin-6-yl-piperidin-4-yl)-N-methyl-2,3-dihydro-1H-indene-5-carboxylic acid amide], the inhibition at 10 µM turned out to be 100%.

Consider `CN(C(=O)c1ccc2c(c1)C(NC(=O)C1CCCCC1)CC2)C1CCN(c2ccc3cnccc3c2)CC1` (stereo not shown) [CC_H-77, 3-(Cyclohexanecarbonylamino)-N-(1-isoquinolin-6-yl-piperidin-4-yl)-N-methyl-2,3-dihydro-1H-indene-5-carboxylic acid amide], for which the inhibition at 10 µM stood at 99%.

In the case of `CN(C(=O)c1ccc2c(c1)C(NC(=O)CCC1CCCC1)CC2)C1CCN(c2ccc3cnccc3c2)CC1` (stereo not shown) [CC_H-78, 3-(3-Cyclopentyl-propanoylamino)-N-(1-isoquinolin-6-yl-piperidin-4-yl)-N-methyl-2,3-dihydro-1H-indene-5-carboxylic acid amide], the inhibition at 10 µM worked out at 100%.

As for `CC(C)CC(=O)NC1CCc2ccc(C(=O)N(C)C3CCN(c4ccc5cnccc5c4)CC3)cc21` (stereo not shown) [CC_H-79, N-(1-Isoquinolin-6-yl-piperidin-4-yl)-N-methyl-3-(3-methyl-butanoylamino)-2,3-dihydro-1H-indene-5-carboxylic acid amide], the inhibition at 10 µM turned out to be 99%.

`CN(C(=O)c1ccc2c(c1)C(NC(=O)c1sccc1Cl)CC2)C1CCN(c2ccc3cnccc3c2)CC1` (stereo not shown) [CC_H-80, 3-Chloro-N-[6-[(1-isoquinolin-6-yl-piperidin-4-yl)-methyl-carbamoyl]-2,3-dihydro-1H-inden-1-yl]-thiophene-2-carboxylic acid amide]: the inhibition at 10 µM came to 98%.

As for `Cc1cc(N2CCC(N(C)C(=O)c3ccc4c(c3)C(N(C)C(=O)C3CCCCC3)CC4)CC2)cc(C)n1` (stereo not shown) [CC_H-81, 3-(Cyclohexanecarbonyl-methyl-amino)-N-[1-(2,6-dimethyl-pyridin-4-yl)-piperidin-4-yl]-N-methyl-2,3-dihydro-1H-indene-5-carboxylic acid amide], the inhibition at 10 µM was 100%.

On to `Cc1cc(N2CCC(N(C)C(=O)c3ccc4c(c3)C(N(C)C(=O)c3cc(F)ccc3Cl)CC4)CC2)cc(C)n1` (stereo not shown) [CC_H-82, 3-[(2-Chloro-5-fluoro-benzoyl)-methyl-amino]-N-[1-(2,6-dimethyl-pyridin-4-yl)-piperidin-4-yl]-N-methyl-2,3-dihydro-1H-indene-5-carboxylic acid amide], for which the inhibition at 10 µM was 100%.

As to `Cc1cc(N2CCC(N(C)C(=O)c3ccc4c(c3)C(N(C)C(=O)c3cccc(Cl)c3Cl)CC4)CC2)cc(C)n1` (stereo not shown) [CC_H-83, 3-[(2,3-Dichloro-benzoyl)-methyl-amino]-N-[1-(2,6-dimethyl-pyridin-4-yl)-piperidin-4-yl]-N-methyl-2,3-dihydro-1H-indene-5-carboxylic acid amide], the inhibition at 10 µM was 100%.

For `Cc1cc(N2CCC(N(C)C(=O)c3ccc4c(c3)C(N(C)C(=O)CCC3CCCC3)CC4)CC2)cc(C)n1` (stereo not shown) [CC_H-84, 3-(3-Cyclopentyl-propanoyl-methyl-amino)-N-[1-(2,6-dimethyl-pyridin-4-yl)-piperidin-4-yl]-N-methyl-2,3-dihydro-1H-indene-5-carboxylic acid amide], the inhibition at 10 µM was found to be 100%.
